Results published in patent US12545674B2, “Crystal of trifluoromethyl/chloro disubstituted sulfonamide selective BCL-2 inhibitor” (priority 2020, dated 2026).

Legend:
[1] = In vitro stability in liver microsomes, human; format: in vitro ADME; conditions: 1 μM
Experimental: (§1) 300 μL of the final incubation system contains 30 μL of liver microsomes (protein concentration: 5 mg/mL), 30 μL of NADPH+MgCl2, 3 μL of the test compound (in acetonitrile), and 237 μL of PBS buffer (pH 7.4). Among them, the proportion of the organic solvent (acetonitrile) was 1% (volume ratio). Samples were prepared in duplicate for each species (mouse, rat and human), with 0.3 mL each. […] 50 μL of the mixture was taken at 0 min, 15 min, 30 min and 60 min, and 300 μL of glacial acetonitrile containing an internal standard was added to terminate the reaction. 50 μL of the incubated sample was added with 300 μL of glacial acetonitrile containing an internal standard (20 ng/mL diazepam) for precipitation. The mixture was vortexed for 5 min, and centrifuged (13,000 rpm, 20° C.) for 10 min 70 μL of supernatant was taken and 70 μL of ultrapure water was added for dilution and homogeneous mixing. 1 μL of sample was injected for analysis.

[2] = In vitro stability in liver microsomes, mouse; format: in vitro ADME; conditions: 1 μM
Experimental: as §1

[3] = system: human platelet caspase-3 activity; assay: Human platelet toxicity study (caspase-3 activity assay); format: cell-based; conditions: human platelets, compound concentration 1 μM, 90 min; normalized, reference ABT-199
Experimental: 10 mL of human whole blood was collected using a heparin sodium anticoagulation tube, mixed well by turning upside down, and centrifuged at 90 g for 10 min. The supernatant was collected and centrifuged at 1950 g for 10 min. The supernatant was discarded, and the residue was resuspended in 4 mL of PBS, and centrifuged at 1190 g for 5 min. The procedure was repeated once. The supernatant was discarded, and the platelets were resuspended in PBS and adjusted to a density of 2-3×10^8 cells/mL. Cells were seeded into a 96-well plate at a density of […] and at 100 μL/well. 50 μL of control buffer was added to each negative control well, and 50 μL of compound at a corresponding concentration was added to each compound well to adjust the final concentration of the compound to 2.5 μM or 1 μM, followed by incubation in an incubator at 37° C. for 90 min. The liquids in the 96-well plate were transferred to 1.5 mL centrifuge tubes. […] The resulting mixture was mixed gently, and the plate was read by a PE Envision multi-functional microplate reader (excitation: 360 nm, emission: 460 nm) once every 10 min for 6 times. Caspase-3 activity was determined based on the intensity of the released AMC fluorescence, that is the slope of the fitted line to which each well corresponds represents Caspase activity (all data were normalized and the reference was ABT-199).

[4] = In vitro stability in liver microsomes, rat; format: in vitro ADME; conditions: 1 μM
Experimental: as §1

[5] = system: human B-cell leukemia RS4;11 subcutaneous xenograft; assay: Pharmacodynamics in human B-cell leukemia RS4;11 subcutaneous xenograft model; format: in vivo, NOD/SCID mice; conditions: 25 mg/kg p.o. single dose, Day 17 after end of treatment
Description: NOD/SCID mice, female, aged 9-10 weeks (ages upon tumor cell grafting), body weight of 16.3-22.0 g. The mice were purchased from Beijing AniKeeper Biotech Co., Ltd. (production license number: SCXK (Jing) 2017-0006; animal certification number: 11402400013155). Breeding environment: SPF grade. Mice were grafted subcutaneously on the right anterior dorsal side with 1×10^7 RS4;11 cells. The day of grafting was defined as day 0. When the mean tumor volume was 240 mm^3, the mice were randomized by the tumor size. The administration was performed as per Table 16 below.
Clinical symptoms observed during the study were recorded in the raw data. Calculation formula for tumor volume: Tumor volume (mm^3)=½×(a×b^2) (where a represents long diameter and b represents short diameter). The data were collected using StudyDirector™ software (version No. 3.1.399.19, supplier: Studylog System, Inc., S.San Francisco, CA, USA) in the study, including measurements of the long and short diameters of the tumor and body weights of the animals. The raw data obtained from a balance and a vernier caliper were directly input into the software, and any change in the data was recorded. Relative tumor proliferation rate (T/C %) refers to the percentage of the relative tumor volume or tumor weight of the treatment and control groups at a certain time point. The calculation formula is as follows: T/C %=TRTV/CRTV×100%(TRTV:mean RTV for treatment group;CRTV:mean RTV for vehicle control group;RTV=Vt/V0, where V0 denotes the tumor volume of the animal upon grouping, and Vt denotes the tumor volume of the animal after treatment).
(T and C are the relative tumor volume (RTV) or tumor weight (TW) at a particular time point for the treatment and control groups, respectively).
All experimental results were expressed as mean tumor volume±SEM (standard error of mean). The relative tumor volume of the treatment group was compared with that of the control group for any significant difference by the independent sample T test. All the data were analyzed using SPSS 18.0. p<0.05 was defined as a significant difference.

- Human Residuals at 60 min [1]: 86.3%
- Mouse Residuals at 60 min [2]: 73.9%
- Rat Residuals at 60 min [4]: 90.9%
Compound: CC1(C)CCC(CN2CCN(c3ccc(C(=O)NS(=O)(=O)c4ccc(NC[C@H]5COCCO5)c([N+](=O)[O-])c4)c(Oc4cnc5[nH]ccc5c4)c3)CC2)=C(c2ccc(C(F)(F)F)cc2Cl)C1 [Compound of formula I]
- Slope (caspase-3 activity) [3]: 0.59
- T/C [5]: 29.8%
- TGI [5]: 70.2%
- Tumor volume (x ± S) [5]: 600.39 ± 32.88 mm^3
